For one series, the target named is T1, Plk2 PBD (Homo sapiens, UniProt Q9NYY3).
T1 construct: human Plk2 amino acids 355-685; made in house; host or cells: E. coli Rosetta BL21 DE3
T1 sequence (Q9NYY3 355-685): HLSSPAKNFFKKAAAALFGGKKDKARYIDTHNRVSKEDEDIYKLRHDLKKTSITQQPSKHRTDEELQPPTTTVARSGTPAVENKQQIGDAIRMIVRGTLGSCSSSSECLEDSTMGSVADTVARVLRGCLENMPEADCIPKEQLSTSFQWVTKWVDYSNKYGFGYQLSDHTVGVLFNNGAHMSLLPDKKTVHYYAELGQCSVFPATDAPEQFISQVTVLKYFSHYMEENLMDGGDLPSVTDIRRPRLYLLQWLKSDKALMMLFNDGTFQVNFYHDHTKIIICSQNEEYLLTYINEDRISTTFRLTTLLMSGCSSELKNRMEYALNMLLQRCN
The experiment in a line: Fluorescence polarization specificity assay, Plk2 PBD. The conditions noted are these: Plk2 PBD 130 nM; incubation with inhibitor 1 hr at 22 °C prior to addition of fluorophore-labeled peptide; read-out: apparent IC50. The format is binding. The text has this: (§1) DNA sequences coding for human Plk1 amino acids 326-603, human Plk2 amino acids 355-685, and human Plk3 amino acids 335-646 comprising the respective polo-box domains were amplified by PCR from plasmid DNA (Plk1) or placenta cDNA (Plk2, Plk3) and cloned into a modified pET28a (Plk1) or a modified pQE70 vector (Plk2 and Plk3). Similarly, nucleotides coding for the […] (FHA) of the kinase Chk2 (amino acids 1-225) and the WW domain of the proline isomerase Pin1 (amino acids 1-162) were amplified by PCR from HeLa S3 and placenta cDNA, respectively, and cloned into a modified pET28a vector. The design of expression plasmids coding for STAT1, STAT3, STATSb, and Lck has been described before and belongs to the knowledge of a skilled person. […] Wild-type and mutant PBD sequences were cloned into a modified pCS2 mammalian expression vector carrying a myc-tag. […]
(§2) Diverse Chemical libraries consisting of 22461 small molecules were tested in a fluorescence polarization assay which analyzes binding between 5-carboxyfluorescein-GPMQST(P03H2)PLNG-OH (final concentration: 10 nM) and the Plk1 polo-box domain (final concentration: 65 nM). […]
(Fluorescence polarisation rises when a labelled molecule tumbles more slowly, as on binding a larger partner.)

The target of a further series is T2, Plk3 PBD (Homo sapiens, UniProt Q9H4B4).
T2 construct: human Plk3 amino acids 335-646; made in house; host or cells: E. coli Rosetta BL21 DE3
T2 sequence (Q9H4B4 335-646): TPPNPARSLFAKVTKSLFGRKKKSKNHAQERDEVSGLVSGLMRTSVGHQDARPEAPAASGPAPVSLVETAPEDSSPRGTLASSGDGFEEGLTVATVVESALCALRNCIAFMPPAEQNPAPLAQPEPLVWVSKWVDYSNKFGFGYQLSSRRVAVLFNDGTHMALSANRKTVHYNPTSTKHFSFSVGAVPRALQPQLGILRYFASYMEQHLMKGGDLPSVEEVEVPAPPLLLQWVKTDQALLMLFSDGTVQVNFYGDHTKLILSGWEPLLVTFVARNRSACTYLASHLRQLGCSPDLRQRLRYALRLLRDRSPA
The experiment in a line: Fluorescence polarization specificity assay, Plk3 PBD. Type of series: binding. The conditions noted are these: Plk3 PBD 1875 nM; incubation with inhibitor 1 hr at 22 °C prior to addition of fluorophore-labeled peptide; read-out: apparent IC50.

In the next series the target is T3, Chk2 FHA domain (Homo sapiens, UniProt O96017).
T3 construct: kinase Chk2 (amino acids 1-225); made in house; host or cells: E. coli Rosetta BL21 DE3
The series is described as follows: Fluorescence polarization specificity assay, Chk2 FHA domain. The format is binding. The conditions noted are these: Chk2 240 nM; incubation with inhibitor 1 hr at 22 °C prior to addition of fluorophore-labeled peptide; read-out: apparent IC50.
Source text: as §1, §2

Another series deals with T4, Pin1 WW domain (Homo sapiens, UniProt Q13526).
T4 construct: proline isomerase Pin1 (amino acids 1-162); made in house; host or cells: E. coli Rosetta BL21 DE3
The experiment in a line: Fluorescence polarization specificity assay, Pin1 WW domain. Type of series: binding. The following applies: Pin1 1000 nM; incubation with inhibitor 1 hr at 22 °C prior to addition of fluorophore-labeled peptide; read-out: apparent IC50.
Source text: as §1, §2

For another series, the target named is STAT1 SH2 domain (Homo sapiens, UniProt P42224). The series is described as follows: Fluorescence polarization specificity assay, STAT1 SH2 domain. Type of series: binding.
Source text: as §1, §2

In the next series the target is T5, STAT3 SH2 domain (Homo sapiens, UniProt P40763).
T5 construct: made in house
The series is described as follows: Fluorescence polarization specificity assay, STAT3 SH2 domain. The format is binding. The conditions noted are these: STAT3 160 nM; incubation with inhibitor 1 hr at 22 °C prior to addition of fluorophore-labeled peptide; read-out: apparent IC50.
Source text: as §1, §2

For a further series, the target named is T6, STAT5 SH2 domain (Homo sapiens, UniProt P51692).
T6 construct: made in house
T6 sequence (P51692 136-703 limits assumed): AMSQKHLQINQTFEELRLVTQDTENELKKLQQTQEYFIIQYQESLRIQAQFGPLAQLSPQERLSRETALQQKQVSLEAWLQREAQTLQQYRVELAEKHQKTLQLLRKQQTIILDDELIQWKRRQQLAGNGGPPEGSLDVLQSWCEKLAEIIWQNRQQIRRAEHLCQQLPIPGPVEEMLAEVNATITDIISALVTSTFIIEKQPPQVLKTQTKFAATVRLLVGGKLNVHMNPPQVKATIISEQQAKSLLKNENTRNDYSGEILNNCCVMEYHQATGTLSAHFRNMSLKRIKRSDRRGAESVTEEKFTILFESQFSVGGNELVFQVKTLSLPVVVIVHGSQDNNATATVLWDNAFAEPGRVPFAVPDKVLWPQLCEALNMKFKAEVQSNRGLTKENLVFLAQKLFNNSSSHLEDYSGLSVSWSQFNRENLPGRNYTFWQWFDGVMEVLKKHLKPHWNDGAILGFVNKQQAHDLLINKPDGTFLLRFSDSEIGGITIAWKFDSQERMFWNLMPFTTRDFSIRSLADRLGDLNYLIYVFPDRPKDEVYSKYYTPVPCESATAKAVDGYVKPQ
The experiment in a line: Fluorescence polarization specificity assay, STAT5 SH2 domain. The format is binding. The following applies: STAT5b 110 nM, incubation with inhibitor 1 hr at 22 °C prior to addition of fluorophore-labeled peptide, read-out: apparent IC50.
Source text: as §1, §2

The next series concerns the target Lck SH2 domain (Homo sapiens, UniProt P06239). The series is described as follows: Fluorescence polarization specificity assay, Lck SH2 domain. The format is binding.
Source text: as §1, §2

A further series has as its system HeLa cells. The experiment in a line: Mitotic arrest / cell cycle analysis in synchronized HeLa cells (Western blot, flow cytometry). The format is cell-based. The following applies: for mitotic arrest in HeLa cells: HeLa cells synchronized by thymidine block, released into medium containing compound, Figs. 5A-5C. The text has this:
Figure 1A/B Comparative IC50 inhibition curves with preferred compounds [1] (poloxin) and [14] (thymoquinone, TQ) versus Plk1, Plk2, Plk3, Chk2, Pin1, Stat1, Stat3, Stat5 and Lck. Figure 2 Cellular effects of poloxin and thymoquinone (TQ): Mitotic indices of HeLa cells 14 hrs after release from G1/S block. Figure 3 Distribution of mitotic phases and chromosome congression defects within the metaphase population in the presence of poloxin and thymoquinone (TQ). […]. […] Unsynchronized cells (control), cells synchronized with nocodazol (Noc) or thymidine (Thym), or cells released from thymidine block in the medium containing only DMSO (DMSO) were analyzed for comparison. Figure 5B Analysis of cell cycle distribution by fluorescence-activated flow cytometry. Cells were treated as in 5A. A representative example is shown. Figure 5C Quantification of the cell cycle analysis as shown in 5B (n=3). […]. […] Figure 6B Overexpression of PBD wild-type (wt), but not of the triple mutant PBD FAA, induces mitotic arrest in HeLa cells.
HeLa cells were maintained in Dulbecco's Modified Eagle-Medium (High Glucose) supplemented with 2 mM L-glutamine, 1 mM sodium pyruvate, 10% foetal calf serum, 100 U/mL penicillin, and 100 µg/mL streptomycin (GIBCO and PAA). For the Western blot analysis Fig. 5A, HeLa cells were arrested at the G1/S boundary by thymidine block, and released into thymidine-free medium containing the indicated concentration of compounds at a final DMSO concentration of 0.5%. After 7 hours, medium was replaced with fresh medium which also contained the indicated concentration of compound. […]
For the determination of mitotic indices shown in Fig. 6A, the number of mitotic cells within a population of 200-300 cells was counted. For the determination of the mitotic phase distribution shown in Fig. 6B, populations of approximately 50 mitotic cells were analyzed. […] The DNA content of 30000 cells was determined with a FACScan flow cytometer (BD Biosciences). The data were analyzed with cell cycle analysis Software MODFIT LT 2.0 (Verity Software House). […]

In general, IC50 refers to the concentration at which inhibition is half-maximal.

Read-outs that look alike come from different tables or passages of the source.

Lck SH2 domain, sequence (P06239 127-224): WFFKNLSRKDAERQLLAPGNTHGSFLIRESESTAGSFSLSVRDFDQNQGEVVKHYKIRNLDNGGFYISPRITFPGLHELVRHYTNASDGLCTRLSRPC
STAT1 SH2 domain, sequence (P42224 132-713): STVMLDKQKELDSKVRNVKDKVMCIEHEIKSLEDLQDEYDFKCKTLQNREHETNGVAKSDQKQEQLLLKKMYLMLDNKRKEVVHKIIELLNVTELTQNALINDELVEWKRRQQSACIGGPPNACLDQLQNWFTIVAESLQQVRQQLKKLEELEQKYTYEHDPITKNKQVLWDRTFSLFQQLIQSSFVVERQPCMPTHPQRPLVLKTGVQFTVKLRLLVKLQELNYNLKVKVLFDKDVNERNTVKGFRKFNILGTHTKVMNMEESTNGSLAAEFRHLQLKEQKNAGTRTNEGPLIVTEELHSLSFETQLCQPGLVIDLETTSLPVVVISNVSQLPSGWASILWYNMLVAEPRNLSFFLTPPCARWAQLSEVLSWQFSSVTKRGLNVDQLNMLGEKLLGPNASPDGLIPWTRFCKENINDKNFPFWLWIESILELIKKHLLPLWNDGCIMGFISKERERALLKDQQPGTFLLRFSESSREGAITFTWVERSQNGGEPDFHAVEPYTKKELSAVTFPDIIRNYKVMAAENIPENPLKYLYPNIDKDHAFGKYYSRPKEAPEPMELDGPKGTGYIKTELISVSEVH
T3 sequence (O96017 1-225): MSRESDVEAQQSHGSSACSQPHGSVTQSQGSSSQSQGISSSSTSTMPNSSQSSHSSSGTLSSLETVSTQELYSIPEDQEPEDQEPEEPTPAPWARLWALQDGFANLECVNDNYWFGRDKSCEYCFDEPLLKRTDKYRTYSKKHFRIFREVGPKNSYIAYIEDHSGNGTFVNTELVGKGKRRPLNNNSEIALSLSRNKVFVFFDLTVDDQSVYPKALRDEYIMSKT
T5 sequence (P40763 127-722 limits assumed): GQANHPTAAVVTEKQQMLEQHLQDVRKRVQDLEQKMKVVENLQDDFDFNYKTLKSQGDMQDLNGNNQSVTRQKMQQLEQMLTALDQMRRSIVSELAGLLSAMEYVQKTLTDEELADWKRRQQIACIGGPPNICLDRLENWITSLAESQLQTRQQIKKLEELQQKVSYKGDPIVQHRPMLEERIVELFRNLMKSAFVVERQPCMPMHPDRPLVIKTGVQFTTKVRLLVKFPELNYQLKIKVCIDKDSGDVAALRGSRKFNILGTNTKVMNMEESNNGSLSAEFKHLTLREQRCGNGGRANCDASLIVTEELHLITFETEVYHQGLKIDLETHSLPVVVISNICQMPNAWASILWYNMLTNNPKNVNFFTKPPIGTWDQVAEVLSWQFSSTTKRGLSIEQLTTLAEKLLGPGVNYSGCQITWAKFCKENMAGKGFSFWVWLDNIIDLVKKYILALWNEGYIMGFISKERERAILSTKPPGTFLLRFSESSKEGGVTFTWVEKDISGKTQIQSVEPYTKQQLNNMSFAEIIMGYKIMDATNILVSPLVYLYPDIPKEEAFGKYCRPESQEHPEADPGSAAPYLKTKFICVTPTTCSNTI
T4 sequence (Q13526 1-162): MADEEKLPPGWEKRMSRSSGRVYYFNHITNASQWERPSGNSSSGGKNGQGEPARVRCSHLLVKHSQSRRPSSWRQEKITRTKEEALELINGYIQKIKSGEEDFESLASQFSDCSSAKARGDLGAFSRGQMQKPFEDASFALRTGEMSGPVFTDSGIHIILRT
Protocol for Plk3 PBD: Purified proteins were aliquoted, snap-frozen in liquid nitrogen, and stored at -80°C before use. Binding curve experiments were done for each protein batch before inhibition experiments were started.
The final concentration of buffer components used was: 10 mM Tris, pH 8.0, 50 mM NaCl, 1 mM EDTA, 0.1 % Nonidet P-40, and 10% DMSO. The Plk1 PBD was incubated with compounds for 60 min prior to addition of the fluoropeptide. Screening was performed at room temperature. The following fluorophore-labeled peptides were used for specificity assays: • Plk2: 5-carboxyfluorescein-GPMQTST(PO3H2)PKNG-OH; • Plk3: 5-carboxyfluorescein-GPLATST(PO3H2)PKNG-OH; • Chk2: 5-carboxyfluorescein-GHFDT(PO3H2)YLIRR-OH; • Pin 1: 5-carboxyfluorescein-GWFYS(PO3H2)PRLKK-OH; • STAT1: 5-carboxyfluorescein-GY(PO3H2)DKPHVL-OH; • STAT3: 5-carboxyfluorescein-GY(PO3H2)LPQTV-NH2; • STAT5b: 5-carboxyfluorescein-GY(PO3H2)L VLDKW-OH;Lck:5-carboxyfluorescein-GY(P03H2)EEIP-OH.
Fluorescein-labeled peptides were >95% pure. […] Inhibition curves were fitted using SigmaPlot (SPSS Science Software GmbH).

`CC1=CC(=O)C(C(C)C)=CC1=O` [Thymoquinone, thymoquinone]: the IC50 on Plk2 PBD is 1.9 ± 0.1 µM; on Plk3 PBD, 22.4 ± 0.8 µM; on Chk2 FHA domain it was 3.9 ± 0.6 µM; at Pin1 WW domain, 20.4 ± 0.9 µM; against STAT1 SH2 domain, over 5000 µM; on STAT3 SH2 domain it was 10.9 ± 0.2 µM. Moreover, the IC50 on STAT5 SH2 domain was over 0.24 mM; against Lck SH2 domain, over 5000 µM. Further, the “toxic side effects in cell cycle analysis” value in the series with HeLa cells (25 µM, HeLa cells, flow cytometry, quantification of cell cycle profile unfeasible (Fig. 5C)) was “toxic side effects”. In addition, in the series on HeLa cells, the “mitotic arrest in HeLa cells” value is reported as “induce mitotic arrest”.

For `CC1=CC(=O)C(C(C)C)=CC1=NOC(=O)c1ccccc1C` [Poloxin], the IC50 at Plk2 PBD is 18.7 ± 1.8 µM; at Chk2 FHA domain it was over 330 µM; on Pin1 WW domain, over 215 µM; on STAT1 SH2 domain (STAT1 120 nM, incubation with inhibitor 1 hr at 22 °C prior to addition of fluorophore-labeled peptide, read-out: apparent IC50) it was over 555 µM; on STAT3 SH2 domain, over 285 µM; on STAT5 SH2 domain (value in mM), over 1 mM. Further, the concentration for half-maximal inhibition (IC50) at Lck SH2 domain (Lck 40 nM, incubation with inhibitor 1 hr at 22 °C prior to addition of fluorophore-labeled peptide, read-out: apparent IC50) was over 5000 µM. In addition, the “mitotic arrest in HeLa cells” value with HeLa cells is on record as “induce mitotic arrest”.

For the origin of these results see patent EP2065039A1, “Selective inhibition of Polo-like kinase 1” (Max-Planck-Gesellschaft zur Förderung der Wissenschaften …, priority 2007, dated 2009).
